Columns and labels:
[1] = system: mast cells from the rat abdominal cavity; test: Inhibition of histamine release from mast cells from a rat abdominal cavity; type: cell-based; conditions: Releaser: Compound 48/80
Procedure: A mast cell suspension is collected from a rat abdominal cavity. The suspension is treated with a sample adjusted to 1 to 0.01% (specimen) and to the mixture is added a histamine releasing agent. Inhibition of this release is observed to determine an activity value. […]
A solution of sample adjusted to a concentration of 0.01 to 0.003% in Tyrode's solution containing phosphatidyl-L-serine (PS) (1.75 mL) was preincubated at 37° C. for 5 min. To the solution was added 0.05 mL of the mast cell suspension from the rat abdominal cavity and the mixture was preincubated for further 15 min. […] A control was prepared as described above except that 1.75 mL of Tyrode's solution containing PS was used in place of 1.75 mL of the sample solution in Tyrode's solution containing PS and 0.2 mL of […] PS. After quenching the reaction by ice cooling, the mixture was centrifuged at 300×g and 4° C. for 10 min. The amounts of histamine were determined for the supernatant and the sediment, respectively, according to the method of Shore et al. to calculate an inhibition rate to histamine release.
Calculation equation for a histamine release rate [formula]
PS=Amount of histamine in the supernatant
PR=Amount of histamine remaining in the cells
Calculation equation for a release inhibition rate [formula]
S=Release rate of the sample
C=Release rate of the control […]

Solubility in water = type: physicochemical

solubility in water (Solubility in water): freely soluble
Compound: O=c1c(O[C@@H]2OC(CO[C@@H]3OC(CO)[C@@H](O)C(O)C3O)[C@@H](O)C(O)C2O)c(-c2ccc(O)cc2)oc2cc(O)cc(O)c12 (stereo partly drawn) [kaempferol 3-0 [β-D-glucopyranosyl-(1→6)-β-D-glucopyranoside]]
Inhibition rate ([1]; concentration 3 × 10^−5 g/mL): 28.5%
Inhibition rate ([1]; concentration 9 × 10^−5 g/mL): 98.4%

Reference: patent publication US6562793B2, “Antiallergic agent” (We'll Corporation, priority 2000, dated 2003)
